The test system of one assay is Bacillus subtilis. Kind of assay: Antibacterial activity against Bacillus subtilis. The class given is functional.
A further assay relates to Micrococcus luteus. The experiment in a line: Antibacterial activity against Micrococcus luteus. Type of assay: functional.
The next assay concerns L1210. Kind of assay: Cytotoxicity against mouse L1210 cells. The class given is functional, cell-based.
A further assay has as its system Candida albicans. The experiment in a line: Antifungal activity against Candida albicans. The class given is functional.
The subject of the next assay is P388. Kind of assay: Cytotoxicity against mouse P388 cells. The class given is functional, cell-based.
The test system of the next assay is KB. Kind of assay: Cytotoxicity against human KB cells. Type of assay: functional, cell-based.
Another assay has as its system Escherichia coli. The experiment in a line: Antibacterial activity against Escherichia coli. The class given is functional.
A further assay deals with Staphylococcus aureus. The experiment in a line: Antibacterial activity against Staphylococcus aureus. The class given is functional.
Assay [1] addresses Receptor tyrosine-protein kinase erbB-2 (Homo sapiens) (UniProt P04626). The experiment in a line: Inhibition of HER2.
A further assay has as its system Cryptococcus neoformans. Kind of assay: Antifungal activity against Cryptococcus neoformans. Type of assay: functional.
For the next assay, the system named is Aspergillus niger. Kind of assay: Antifungal activity against Aspergillus niger. Type of assay: functional.

Values after ≈ are worked out from the molar mass of the structure shown. Active and inactive are the calls of the source. The rule behind the calls is not given here. Bounds are passed on as bounds.

Chain of Receptor tyrosine-protein kinase erbB-2 (Homo sapiens) (P04626 whole entry): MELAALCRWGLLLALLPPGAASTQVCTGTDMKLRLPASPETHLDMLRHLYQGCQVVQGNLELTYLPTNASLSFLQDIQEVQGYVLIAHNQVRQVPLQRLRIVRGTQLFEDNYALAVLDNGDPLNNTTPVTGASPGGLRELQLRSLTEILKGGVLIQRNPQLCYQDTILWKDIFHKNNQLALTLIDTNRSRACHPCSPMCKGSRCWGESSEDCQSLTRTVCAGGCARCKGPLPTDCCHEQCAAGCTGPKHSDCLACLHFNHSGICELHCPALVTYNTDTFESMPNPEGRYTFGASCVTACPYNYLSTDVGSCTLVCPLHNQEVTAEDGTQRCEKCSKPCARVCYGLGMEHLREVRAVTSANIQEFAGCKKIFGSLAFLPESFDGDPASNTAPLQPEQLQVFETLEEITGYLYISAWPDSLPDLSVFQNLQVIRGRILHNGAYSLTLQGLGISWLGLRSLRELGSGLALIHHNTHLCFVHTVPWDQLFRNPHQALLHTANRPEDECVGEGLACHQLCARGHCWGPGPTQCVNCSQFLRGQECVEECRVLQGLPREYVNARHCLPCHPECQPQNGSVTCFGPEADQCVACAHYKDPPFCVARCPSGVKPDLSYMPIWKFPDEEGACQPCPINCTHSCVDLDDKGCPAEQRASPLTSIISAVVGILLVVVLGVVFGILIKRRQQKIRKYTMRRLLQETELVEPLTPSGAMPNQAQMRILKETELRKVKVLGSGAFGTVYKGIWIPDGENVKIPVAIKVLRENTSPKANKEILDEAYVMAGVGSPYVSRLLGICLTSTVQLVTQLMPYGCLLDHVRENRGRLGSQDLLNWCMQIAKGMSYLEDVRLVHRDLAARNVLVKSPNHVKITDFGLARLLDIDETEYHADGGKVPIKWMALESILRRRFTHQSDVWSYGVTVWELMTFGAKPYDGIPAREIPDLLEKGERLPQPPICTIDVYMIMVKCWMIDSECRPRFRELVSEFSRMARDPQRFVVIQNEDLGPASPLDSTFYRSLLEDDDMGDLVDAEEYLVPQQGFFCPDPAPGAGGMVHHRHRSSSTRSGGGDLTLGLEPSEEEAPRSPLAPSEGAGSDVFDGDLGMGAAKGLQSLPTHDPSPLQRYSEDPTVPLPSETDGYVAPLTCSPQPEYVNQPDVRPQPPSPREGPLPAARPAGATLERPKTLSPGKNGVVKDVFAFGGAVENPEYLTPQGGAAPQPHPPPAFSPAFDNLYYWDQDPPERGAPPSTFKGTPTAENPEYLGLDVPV

Turning to `CC1=CCC[C@H]2[C@](C)(CC3=C(O)C(=O)C=C(NCCC[S+](C)[O-])C3=O)[C@@H](C)CC[C@]12C` (stereo partly drawn) [NAKIJIQUINONE I], the MIC is over 33.3 µg/mL in the assay with Bacillus subtilis; 33.3 µg/mL (≈ 74.4 µM) against Micrococcus luteus; over 33.3 µg/mL against Candida albicans; over 33.3 µg/mL in the assay with Escherichia coli; over 33.3 µg/mL with Staphylococcus aureus; over 33.3 µg/mL against Cryptococcus neoformans. In addition, in the assay on Aspergillus niger, the MIC was over 33.3 µg/mL. The figures for the IC50 in the assay on L1210, with P388 and in the assay with KB were 2.4 µg/mL (≈ 5.36 µM), 2.9 µg/mL (≈ 6.48 µM) and 5.6 µg/mL (≈ 12.5 µM), respectively. Further, in [1], the result was Active.

Consider `CC1=CCC[C@H]2[C@](C)(CC3=C(O)C(=O)C=C(NCCc4cnc[nH]4)C3=O)[C@@H](C)CC[C@]12C` [NAKIJIQUINONES G], for which the MIC against Bacillus subtilis is 33.3 µg/mL (≈ 76.1 µM); against Micrococcus luteus, 33.3 µg/mL (≈ 76.1 µM); against Candida albicans, over 33.3 µg/mL; with Escherichia coli, over 33.3 µg/mL; in the assay on Staphylococcus aureus it was 33.3 µg/mL (≈ 76.1 µM); in the assay on Cryptococcus neoformans it was over 33.3 µg/mL. Moreover, the MIC with Aspergillus niger was over 33.3 µg/mL. Further, the IC50 with L1210 stood at 2.9 µg/mL (≈ 6.63 µM); in the assay on P388 it was 3.2 µg/mL (≈ 7.31 µM); in the assay with KB it was 4.8 µg/mL (≈ 11 µM). Further, the outcome in assay [1] was Active.

Turning to `CC1=CCC[C@H]2[C@](C)(CC3=C(O)C(=O)C=C(NCCCCNC(=N)N)C3=O)[C@@H](C)CC[C@]12C` [NAKIJIQUINONES H], the MIC was 33.3 µg/mL (≈ 72.9 µM) against Bacillus subtilis; 16.7 µg/mL (≈ 36.6 µM) against Micrococcus luteus; 8.35 µg/mL (≈ 18.3 µM) against Candida albicans; over 33.3 µg/mL against Escherichia coli; 33.3 µg/mL (≈ 72.9 µM) in the assay with Staphylococcus aureus; 8.35 µg/mL (≈ 18.3 µM) against Cryptococcus neoformans. The MIC against Aspergillus niger worked out at 16.7 µg/mL (≈ 36.6 µM). The results for the IC50 with L1210, with P388 and in the assay on KB were 8.5 µg/mL (≈ 18.6 µM), 2.4 µg/mL (≈ 5.26 µM) and over 10 µg/mL, respectively. In addition, the outcome in assay [1] was Active.

These data come from ChEMBL document CHEMBL1156615, “Nakijiquinones G-I, new sesquiterpenoid quinones from marine sponge” (Bioorg Med Chem, 2008).
